Where “and” joins values, the source holds several entries; their conditions need not be identical. Equal entries are not always repeated.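 Method: 48-hour compound exposure of cells in 96-well plates, five concentrations, linear interpolation of endpoints. GI50: concentration for 50% inhibition of growth. The concentration for full growth arrest is given as TGI.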
Key:
Test in all cases: inhibition of tumour cell growth, NCI panel, 48 h
[1] = test system: KM12 colon
[2] = test system: HCT-15 colon
[3] = test system: SF-268 CNS
[4] = test system: NCI-H460 lung
[5] = test system: HCT-116 colon
[6] = test system: SNB-19 CNS
[7] = test system: SW-620 colon
[8] = test system: NCI-H522 lung
[9] = test system: UACC-62 melanoma
[10] = test system: SN12C renal

SMILES	GI50 [1]	TGI [1]	GI50 [2] [µM]	TGI [2]	GI50 [3]	TGI [3]	GI50 [4] [µM]	TGI [4]	GI50 [5]	TGI [5]	GI50 [6]	TGI [6]	GI50 [7]	TGI [7]	GI50 [8] [µM]	TGI [8]	GI50 [9]	TGI [9]	GI50 [10] [µM]	TGI [10]
COc1cc2cc(Oc3ccc(NC(=O)Nc4ccc(Cl)c(C(F)(F)F)c4)cc3)c(C)nc2cc1OC	1.07 µM	3.85 µM	1.15	4.86 µM	1.55 µM	6.34 µM	1.07	3.57 µM	0.994 µM	3.84 µM	1.41 µM	5.31 µM	1.25 µM	4.57 µM	0.773	2.65 µM	1.24 µM	6.01 µM	1.31	6.12 µM
C(=C\c1nccc2c1[nH]c1ccccc12)/c1ccccc1	2.15 µM	11.3 µM	2.43	17.5 µM	5.23 µM	> 100 µM	3.28	13.7 µM	2.71 µM	10.7 µM	4.4 µM	48.4 µM	2.39 µM	18.1 µM	2.38	7.94 µM	3.48 µM	23.9 µM	3.83	76.7 µM
CC(O)C(O)C(O)C(/C=N\Nc1ccccc1)=N/Nc1ccccc1 (stereo not given)		21.6 µM		27 µM		24.5 µM		24.6 µM		30.5 µM		29.1 µM		25.8 µM		20.9 µM		22.2 µM		34.5 µM
O=C(O)/C(=C\c1ccccc1Cl)S(=O)(=O)c1ccccc1		> 100 µM		> 100 µM		> 100 µM		> 100 µM		> 100 µM		> 100 µM		> 100 µM		> 100 µM		> 100 µM		> 100 µM
BrC1=CC=C2NCCCCCCN=C3C=CC(Br)=CC=C3NCCCCCCN=C2C=C1		> 25.5 µM		> 25.5 µM		> 25.5 µM		> 25.5 µM		> 25.5 µM		> 25.5 µM		> 25.5 µM		> 25.5 µM		> 25.5 µM		> 25.5 µM
COc1cc(-c2cc(/C=C3\C(=O)Nc4ccccc43)[nH]n2)cc(OC)c1OC	1.26 µM	10.7 µM	2.57	10.1 µM	3.76 µM	17.2 µM	4.35	19 µM	2.74 µM	11.1 µM	4.13 µM	32.5 µM	3.33 µM	18.9 µM	1.99	6.3 µM	1.63 µM	4.22 µM	3.58	14.5 µM
Cc1cccc2c1O/C(=C\c1ccc([N+](=O)[O-])o1)C2=O	1.38 µM	2.99 µM	0.274	0.998 µM	1.56 µM	3.94 µM	0.817	2.5 µM	0.251 µM	0.777 µM	2.7 µM	> 33 µM	0.223 µM	0.864 µM	0.222	0.668 µM	1.26 µM	2.72 µM	1.57	4.25 µM
O=C(CNc1ncco1)Nc1ccc(S(=O)(=O)c2ccc(NC(=O)CNc3ncco3)cc2)cc1	1.74 µM	3.43 µM	1.47	5.44 µM	1.53 µM	4.54 µM	2.02	4.29 µM	1.42 µM	2.98 µM	2.88 µM	12.8 µM	1.75 µM	4.13 µM	1.48	3.14 µM	1.75 µM	3.65 µM	3.77	14.7 µM
C/C1=C\C/C=C(\C)[C@H]2CC(CC/C(C)=C/CC1)[C@](C)(C=O)O2	> 100 µM	> 100 µM	> 100	> 100 µM	> 100 µM	> 100 µM	85.1	> 100 µM	6.03 µM	> 100 µM	> 100 µM	> 100 µM	51.1 µM	> 100 µM	59.6	> 100 µM	> 100 µM	> 100 µM	> 100	> 100 µM
O=C1C(=O)c2ccccc2C(O)=C1CC=C(Cl)Cl	11.7 µM and 5.17 µM	> 82.8 µM and 161 µM and > 100 µM	0.424	51.7 µM and 159 µM and > 100 µM	9.02 µM and 7.72 µM	202 µM and > 100 µM	1.66	49.8 µM and 79.1 µM and 25.5 µM	1.15 µM and 2.96 µM	29.7 µM and 44 µM and > 100 µM	7.46 µM and 9.74 µM	> 90.5 µM and 204 µM and > 100 µM	6.98 µM and 4.68 µM	> 80.5 µM and 231 µM and > 100 µM	8.02	40.5 µM and 117 µM and 89.8 µM	6.1 µM and 8.42 µM	40 µM and 81.7 µM and > 100 µM	5.92	> 86.9 µM and 137 µM and > 100 µM
CN1CCN(CCNc2ccc(CO)c3sc4ccccc4c(=O)c23)CC1		16.7 µM		18 µM		20.7 µM		13.1 µM		8.24 µM		36.1 µM		14.1 µM		8.89 µM		9.93 µM	3.64	15.4 µM
COC(=O)OCc1ccc2c(c1)C(=O)c1c-2n(CCCBr)c(=O)c2cc([N+](=O)[O-])ccc12	> 100 µM	> 100 µM	> 100	> 100 µM	> 100 µM	> 100 µM	> 100	> 100 µM	81.2 µM	> 100 µM	79 µM	> 100 µM	> 100 µM	> 100 µM	> 100	> 100 µM	33.5 µM	> 100 µM	> 100	> 100 µM
Cc1cc(C)n(C(=O)c2nn(-c3ccc(Cl)cc3)cc2O)n1	5.07 µM	> 100 µM	3.53	> 100 µM	4.13 µM	> 100 µM	2.38	6.04 µM	3.42 µM	48.2 µM	3.6 µM	> 100 µM	8.02 µM	> 100 µM	7.37	50.7 µM	3.46 µM	18.6 µM	3.37	> 100 µM
CC(O)(CNS(=O)(=O)c1ccccc1)c1ccccc1 (stereo not given)		> 100 µM		> 100 µM		> 100 µM		> 100 µM		> 100 µM		> 100 µM		> 100 µM		> 100 µM		> 100 µM		> 100 µM
CS(=O)(=O)CCn1c(=O)c(Oc2ccc(F)cc2F)cc2cnc(NC3CCOCC3)nc21	> 25 µM	> 25 µM	> 25	> 25 µM	> 25 µM	> 25 µM	> 25	> 25 µM	> 25 µM	> 25 µM	> 25 µM	> 25 µM	> 25 µM	> 25 µM	> 25	> 25 µM	> 25 µM	> 25 µM	> 25	> 25 µM
CCOc1ccc2ccc3cccnc3c2n1		> 100 µM		> 100 µM		> 100 µM		> 100 µM		> 100 µM		> 100 µM		> 100 µM		> 100 µM		75.9 µM		> 100 µM
C[C@@H](Oc1ccc2[nH]nc(/C=C/c3cnn(CCO)c3)c2c1)c1c(Cl)cncc1Cl	< 0.01 µM	5.87 µM	0.197	8.38 µM	0.177 µM	1.49 µM	0.0866	1.62 µM	0.082 µM	> 100 µM	0.364 µM	3.52 µM	0.0574 µM	> 100 µM	0.572	2.49 µM	1.65 µM	3.81 µM	0.121	> 100 µM
NC(Cc1ccnnc1)C(=O)O (stereo not given)		> 100 µM		> 100 µM		> 100 µM		> 100 µM		> 100 µM		> 100 µM		> 100 µM		> 100 µM		> 100 µM		> 100 µM
O=C1c2ccn(CCCCN3CCCCC3)c2C(=O)c2c1c(O)c1ccccc1c2O	8.55 µM	27.5 µM	2.74	7.98 µM	14.9 µM	42.7 µM	3.88	16.3 µM	7.76 µM	> 53.9 µM	19.1 µM	> 90.5 µM	3.18 µM	10.6 µM	11.1	56 µM		1.32 µM	16.5	45 µM
CNC(=O)OC1C(O[C@H]2C[C@H]3[C@@H]4CC=C5C[C@@H](O)CC[C@]5(C)[C@H]4CC[C@]3(C)[C@H]2[C@H](C)C(=O)CCC(C)C)OCC(O)C1OC1OCC(O)C(O)C1OC(=O)c1ccc(OC)cc1 (stereo not given in full)	0.106 µM	4.97 µM	0.677	4.01 µM	0.0226 µM	2.78 µM	0.0115	0.491 µM	0.0129 µM	3.11 µM	0.0204 µM	3.89 µM	0.0122 µM	0.383 µM	0.0314	0.271 µM	0.00688 µM	0.0188 µM	2.64	6.83 µM
CCOC(=O)N[C@H]1CCc2c(Br)c(OC)c(OC)c(OC)c2-c2ccc(SC)c(=O)cc21	< 0.01 µM	3.79 µM	< 0.01	12.2 µM	0.0125 µM	15 µM	< 0.01	1.61 µM	< 0.01 µM	11.8 µM	< 0.01 µM	26.5 µM	< 0.01 µM	16.7 µM	< 0.01	10.1 µM	< 0.01 µM	14.2 µM	< 0.0178	19.8 µM
CCCCCC(O)(CCCCC)CCCCCCCCC1=C(O)c2[nH]c(=O)ccc2C(=O)C1=O		23.6 µM		16.3 µM		19.1 µM		24 µM		16.4 µM		18.2 µM		20.6 µM		20.8 µM		10.9 µM		21 µM
C[C@]12C3CC[C@@]4(CO)C[C@]3(CCC1[C@](C)(C(=O)O)CC[C@@H]2O)CC4=O (stereo not given in full)	> 100 µM	> 100 µM	> 100	> 100 µM	> 100 µM	> 100 µM	> 100	> 100 µM	> 100 µM	> 100 µM	> 100 µM	> 100 µM	> 100 µM	> 100 µM	> 100	> 100 µM	> 100 µM	> 100 µM	> 100	> 100 µM
O=c1c2ccccc2nc(-c2ccccc2)n1O		> 100 µM		> 100 µM		> 100 µM		> 100 µM		> 100 µM		> 100 µM		> 100 µM		> 100 µM		> 100 µM		> 100 µM
CCc1c(O)c2c(c(O)c1C(C)=O)C(=O)c1c(cc(O)c(C(=O)O)c1C(=O)O)C2=O		> 100 µM		> 100 µM		> 100 µM		> 100 µM		> 100 µM		> 100 µM		> 100 µM		> 100 µM		> 100 µM		> 100 µM
C=CCC(N[C@H](CO)c1ccccc1)c1cn(S(=O)(=O)c2ccc(C)cc2)c2ccccc12 (stereo not given in full)	19.8 µM	68.4 µM	23.7	60.2 µM	> 100 µM	> 100 µM	> 100	> 100 µM	17 µM	31.6 µM	60.8 µM	> 100 µM	31.8 µM	85.9 µM	18.6	47.7 µM	15.1 µM	29.7 µM	16.9	32.2 µM
O=S(=O)(O)/C(=C\c1ccccc1)c1ccccc1 (tested in a mixture with another compound)		> 100 µM		> 100 µM		> 100 µM		> 100 µM		> 100 µM		> 100 µM		> 100 µM		> 100 µM		> 100 µM		> 100 µM
COc1ccc(-c2nnc(N3CCN(C(=O)CN4CCN(c5ccc(Cl)cc5)CC4)CC3)nc2-c2ccc(OC)cc2)cc1	8.5 µM	> 100 µM	15.8	> 100 µM	> 100 µM	> 100 µM	14.4	> 100 µM	5.99 µM	> 100 µM	40.1 µM	> 100 µM	57.9 µM	> 100 µM	22.4	> 100 µM	31.5 µM	> 100 µM	17.8	> 100 µM

Source: PubChem BioAssay (NCI)
